Where two headings read alike, the source gives them in different places.
Tests used:
EGFR [1] = biological target: T1, EGFR (Homo sapiens, UniProt P00533); assay: kinase panel (Eurofins), residual activity at […]; type: biochemical
CLK4 [2] = biological target: T2, CLK4 (Homo sapiens, UniProt Q9HAZ1); assay: kinase panel (Eurofins), residual activity at […]; type: biochemical
MAPK1(h) = biological target: T3, MAPK1(h) (Homo sapiens, UniProt P27361); assay: biochemical; parameters: Eurofins kinase panel, residual kinase activity (%) at 10 uM relative to DMSO
T3 construct: gene MAPK3
T3 sequence (P27361 whole entry): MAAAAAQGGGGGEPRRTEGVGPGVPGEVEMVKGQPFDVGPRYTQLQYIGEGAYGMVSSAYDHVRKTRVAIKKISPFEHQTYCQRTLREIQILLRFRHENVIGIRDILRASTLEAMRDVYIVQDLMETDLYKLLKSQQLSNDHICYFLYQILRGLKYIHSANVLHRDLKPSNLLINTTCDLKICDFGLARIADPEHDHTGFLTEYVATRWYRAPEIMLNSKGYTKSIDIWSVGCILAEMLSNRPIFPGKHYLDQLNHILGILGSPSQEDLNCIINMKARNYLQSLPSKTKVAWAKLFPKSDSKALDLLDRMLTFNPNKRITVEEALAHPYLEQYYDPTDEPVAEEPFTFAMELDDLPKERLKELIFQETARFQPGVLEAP
Experimental: (§1) Eurofins performed a “Full KP Panel [Km ATP], KinaseProfile” which contains 429 radiometric kinase activity assays. The remaining kinase activity (%) was determined after treatment with the compounds at a concentration of 10 µM (Cfr. supporting information). Since we could not confirm the interaction between Spautin-1 analogues and USP13, a kinase screening was performed using a set of four compounds (Spautin-1 and three analogues) to discover off-targets and identify kinases that are potentially responsible for the reduction in cell viability observed in our screen (Table 2). The KINOMEscan from Eurofins was performed (see Table S1). This screen consists of a competitive binding assay in which the DNA-tagged kinase is incubated with one of the compounds in the presence of immobilized active site binding ligands. Binding of the compounds to the kinase hampers the binding of the kinase to the ligands and this inhibition was quantified by qPCR.

MAPK2(h) = biological target: T4, MAPK2(h) (Homo sapiens, UniProt P28482); assay: biochemical; parameters: Eurofins kinase panel, residual kinase activity (%) at 10 uM relative to DMSO
T4 construct: gene MAPK1
T4 sequence (P28482 whole entry): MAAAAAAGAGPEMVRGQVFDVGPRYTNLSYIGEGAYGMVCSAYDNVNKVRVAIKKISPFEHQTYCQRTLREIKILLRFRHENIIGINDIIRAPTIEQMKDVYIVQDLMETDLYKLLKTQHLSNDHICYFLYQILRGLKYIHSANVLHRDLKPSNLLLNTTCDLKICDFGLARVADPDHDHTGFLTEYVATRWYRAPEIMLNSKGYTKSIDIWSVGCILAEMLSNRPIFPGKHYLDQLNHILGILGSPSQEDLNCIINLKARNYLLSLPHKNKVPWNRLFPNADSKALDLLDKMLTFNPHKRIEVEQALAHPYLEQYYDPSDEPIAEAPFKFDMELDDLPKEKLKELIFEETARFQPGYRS
Experimental: as §1

MAPK2(m) = biological target: T5, MAPK2(m) (Mus musculus, UniProt P63085); assay: biochemical; parameters: Eurofins kinase panel, residual kinase activity (%) at 10 uM relative to DMSO
T5 construct: gene Mapk1
T5 sequence (P63085 whole entry): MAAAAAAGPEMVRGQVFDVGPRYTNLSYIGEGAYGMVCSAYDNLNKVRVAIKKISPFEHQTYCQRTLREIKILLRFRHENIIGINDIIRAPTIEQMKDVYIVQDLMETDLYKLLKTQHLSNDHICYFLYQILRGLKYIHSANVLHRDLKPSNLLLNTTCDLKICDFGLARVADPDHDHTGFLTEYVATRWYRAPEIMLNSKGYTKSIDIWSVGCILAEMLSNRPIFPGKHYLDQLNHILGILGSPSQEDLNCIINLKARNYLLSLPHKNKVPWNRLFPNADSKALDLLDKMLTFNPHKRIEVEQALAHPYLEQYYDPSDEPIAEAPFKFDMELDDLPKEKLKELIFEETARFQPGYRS
Experimental: as §1

MLCK(h) = biological target: T6, MLCK(h) (Homo sapiens, UniProt Q15746); assay: biochemical; parameters: Eurofins kinase panel, residual kinase activity (%) at 10 uM relative to DMSO
T6 construct: gene MYLK
T6 sequence (Q15746 whole entry): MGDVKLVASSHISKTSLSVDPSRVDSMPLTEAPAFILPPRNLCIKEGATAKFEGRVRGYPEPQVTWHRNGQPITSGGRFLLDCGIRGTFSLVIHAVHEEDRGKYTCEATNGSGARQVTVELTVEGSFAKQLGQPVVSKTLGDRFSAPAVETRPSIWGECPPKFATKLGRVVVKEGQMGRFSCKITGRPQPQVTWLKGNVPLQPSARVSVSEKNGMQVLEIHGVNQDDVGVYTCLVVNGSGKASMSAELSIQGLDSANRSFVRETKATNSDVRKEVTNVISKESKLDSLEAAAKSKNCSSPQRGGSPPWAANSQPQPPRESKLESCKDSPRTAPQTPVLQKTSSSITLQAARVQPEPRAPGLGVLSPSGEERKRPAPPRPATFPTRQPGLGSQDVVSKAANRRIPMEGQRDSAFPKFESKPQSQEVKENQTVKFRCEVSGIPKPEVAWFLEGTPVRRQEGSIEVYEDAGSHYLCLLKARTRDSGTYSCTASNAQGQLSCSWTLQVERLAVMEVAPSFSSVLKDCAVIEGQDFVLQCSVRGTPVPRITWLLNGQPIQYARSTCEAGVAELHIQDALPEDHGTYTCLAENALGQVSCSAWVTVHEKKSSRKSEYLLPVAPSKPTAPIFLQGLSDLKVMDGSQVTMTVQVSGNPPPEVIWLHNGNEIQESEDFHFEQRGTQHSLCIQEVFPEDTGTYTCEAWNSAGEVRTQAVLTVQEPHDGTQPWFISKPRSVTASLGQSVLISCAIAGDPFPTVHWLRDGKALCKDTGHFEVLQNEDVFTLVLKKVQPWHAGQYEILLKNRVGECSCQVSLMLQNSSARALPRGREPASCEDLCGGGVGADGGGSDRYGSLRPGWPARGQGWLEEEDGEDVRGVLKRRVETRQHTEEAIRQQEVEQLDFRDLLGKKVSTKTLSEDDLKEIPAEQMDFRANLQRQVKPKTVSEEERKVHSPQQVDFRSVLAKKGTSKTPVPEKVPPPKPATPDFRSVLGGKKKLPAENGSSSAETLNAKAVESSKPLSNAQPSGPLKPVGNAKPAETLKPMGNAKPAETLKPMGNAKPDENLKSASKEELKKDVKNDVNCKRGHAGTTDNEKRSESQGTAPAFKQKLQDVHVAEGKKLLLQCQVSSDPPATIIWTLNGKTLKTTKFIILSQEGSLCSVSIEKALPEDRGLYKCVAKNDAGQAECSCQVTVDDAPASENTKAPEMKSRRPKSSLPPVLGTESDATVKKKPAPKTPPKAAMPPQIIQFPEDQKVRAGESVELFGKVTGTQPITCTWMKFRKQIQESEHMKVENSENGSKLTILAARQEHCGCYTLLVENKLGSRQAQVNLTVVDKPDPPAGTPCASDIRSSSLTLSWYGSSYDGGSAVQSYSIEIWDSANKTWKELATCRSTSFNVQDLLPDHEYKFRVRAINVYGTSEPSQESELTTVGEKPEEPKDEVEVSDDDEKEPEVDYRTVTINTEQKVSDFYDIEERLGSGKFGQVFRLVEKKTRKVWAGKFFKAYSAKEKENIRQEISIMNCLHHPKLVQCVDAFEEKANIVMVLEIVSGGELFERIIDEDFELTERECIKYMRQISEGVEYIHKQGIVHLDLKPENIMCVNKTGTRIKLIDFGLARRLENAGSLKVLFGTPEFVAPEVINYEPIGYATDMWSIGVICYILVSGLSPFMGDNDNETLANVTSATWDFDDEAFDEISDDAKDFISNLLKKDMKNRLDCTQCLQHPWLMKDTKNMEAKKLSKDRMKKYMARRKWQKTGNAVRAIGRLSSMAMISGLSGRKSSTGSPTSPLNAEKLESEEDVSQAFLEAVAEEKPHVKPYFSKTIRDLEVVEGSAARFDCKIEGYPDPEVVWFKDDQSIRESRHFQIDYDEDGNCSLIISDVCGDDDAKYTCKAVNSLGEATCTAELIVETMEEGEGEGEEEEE
Experimental: as §1

NEK4 [3] = biological target: T7, NEK4 (Homo sapiens, UniProt P51957); assay: radiometric kinase assay (Eurofins), IC50; type: biochemical
CLK4 [4] = biological target: T2, CLK4; assay: biochemical; parameters: Eurofins KinaseProfiler full panel at Km ATP, residual kinase activity (%) relative to DMSO
Method in brief: (§2)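 Compounds screened at 10 µM in radiometric kinase activity assays at Km ATP, reported as remaining kinase activity (%). A KINOMEscan competition-binding screen at 10 µM measured DNA-tagged kinase retained on immobilized active-site ligand by qPCR.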

EGFR [5] = biological target: T1, EGFR; assay: biochemical; parameters: Eurofins KinaseProfiler full panel at Km ATP, residual kinase activity (%) relative to DMSO
Method in brief: as §2

NEK4 [6] = biological target: T7, NEK4; assay: kinase panel (Eurofins), residual activity at […]; type: biochemical; details: read-out: [drawing 3] / Residual Activity (%)
[7] = read-out: [drawing 2] / Residual Activity (%)
[8] = read-out: Residual activity (%) 5ay
[9] = read-out: [drawing 1] / Residual Activity (%)
[10] = read-out: Residual activity (%) Spautin-1
[11] = read-out: Residual activity (%) 5at
[12] = read-out: Residual activity (%) 5as

T1 sequence (P00533 25-1210): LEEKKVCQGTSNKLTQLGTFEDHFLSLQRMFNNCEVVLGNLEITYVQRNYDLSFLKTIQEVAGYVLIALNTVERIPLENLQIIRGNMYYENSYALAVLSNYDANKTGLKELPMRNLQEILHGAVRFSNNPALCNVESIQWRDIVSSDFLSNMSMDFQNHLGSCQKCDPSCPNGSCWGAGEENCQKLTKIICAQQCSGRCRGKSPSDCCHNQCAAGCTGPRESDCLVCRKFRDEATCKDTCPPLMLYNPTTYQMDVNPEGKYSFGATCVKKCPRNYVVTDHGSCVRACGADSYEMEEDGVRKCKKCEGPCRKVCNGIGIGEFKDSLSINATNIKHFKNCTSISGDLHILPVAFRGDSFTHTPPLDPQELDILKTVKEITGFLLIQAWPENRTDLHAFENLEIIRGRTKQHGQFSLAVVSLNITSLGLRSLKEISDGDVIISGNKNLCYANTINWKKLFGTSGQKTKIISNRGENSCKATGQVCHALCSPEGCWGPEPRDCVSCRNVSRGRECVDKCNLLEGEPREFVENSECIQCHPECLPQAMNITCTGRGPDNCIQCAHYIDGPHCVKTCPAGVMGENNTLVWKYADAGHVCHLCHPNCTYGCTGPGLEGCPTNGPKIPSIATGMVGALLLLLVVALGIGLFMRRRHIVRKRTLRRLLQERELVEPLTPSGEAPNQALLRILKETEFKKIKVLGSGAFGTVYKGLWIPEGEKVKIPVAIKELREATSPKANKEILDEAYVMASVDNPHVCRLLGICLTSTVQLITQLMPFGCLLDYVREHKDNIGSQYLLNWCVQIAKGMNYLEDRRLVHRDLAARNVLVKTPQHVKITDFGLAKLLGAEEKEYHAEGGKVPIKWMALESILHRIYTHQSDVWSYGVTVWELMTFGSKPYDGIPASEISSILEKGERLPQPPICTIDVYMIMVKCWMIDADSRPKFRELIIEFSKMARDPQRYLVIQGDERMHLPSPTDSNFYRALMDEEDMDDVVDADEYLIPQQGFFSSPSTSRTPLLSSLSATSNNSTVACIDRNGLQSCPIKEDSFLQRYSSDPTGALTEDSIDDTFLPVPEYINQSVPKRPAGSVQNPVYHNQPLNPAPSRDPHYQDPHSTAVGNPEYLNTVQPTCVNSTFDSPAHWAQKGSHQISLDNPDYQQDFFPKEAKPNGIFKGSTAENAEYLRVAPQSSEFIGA
T2 sequence (Q9HAZ1 whole entry): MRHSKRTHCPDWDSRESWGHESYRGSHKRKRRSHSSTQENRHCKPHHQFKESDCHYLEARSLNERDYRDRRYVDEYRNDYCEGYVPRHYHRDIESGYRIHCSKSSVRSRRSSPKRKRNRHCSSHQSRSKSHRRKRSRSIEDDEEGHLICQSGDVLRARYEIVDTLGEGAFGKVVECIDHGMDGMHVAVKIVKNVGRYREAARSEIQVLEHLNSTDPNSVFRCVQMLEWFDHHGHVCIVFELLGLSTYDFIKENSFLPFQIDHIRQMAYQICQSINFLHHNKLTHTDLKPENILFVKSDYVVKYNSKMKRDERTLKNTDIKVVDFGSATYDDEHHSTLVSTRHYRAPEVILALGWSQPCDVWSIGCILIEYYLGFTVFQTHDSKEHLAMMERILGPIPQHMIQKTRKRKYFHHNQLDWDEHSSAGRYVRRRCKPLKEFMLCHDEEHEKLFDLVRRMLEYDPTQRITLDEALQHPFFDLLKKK

SMILES: COc1ccc2ncnc(Nc3cccc(F)c3)c2c1 [5ay, N-(3-Fluorophenyl)-6-Methoxy-4-Quinazolinamine]
- remaining activity at 10 µM (EGFR [1]; [7]): 1%
- remaining activity at 10 µM (CLK4 [2]; [7]): 6%
- remaining activity at 10 µM (MAPK1(h); [8]): 84%
- remaining activity at 10 µM (MAPK2(h); [8]): 100%
- remaining activity at 10 µM (MAPK2(m); [8]): 118%
- remaining activity at 10 µM (MLCK(h); [8]): 69%

SMILES: Fc1ccc(CNc2ncnc3ccc(F)cc23)cc1 [5aa, 6-Fluoro-N-(4-fluorobenzyl)-4-Quinazolinamine]
- remaining activity at 10 µM (EGFR [1]; [9]): 27%
- remaining activity at 10 µM (CLK4 [2]; [9]): 19%
- remaining activity at 10 µM (MAPK1(h); [10]): 96%
- remaining activity at 10 µM (MAPK2(h); [10]): 96%
- remaining activity at 10 µM (MAPK2(m); [10]): 104%
- remaining activity at 10 µM (MLCK(h); [10]): 83%

SMILES: Fc1ccc2ncnc(NCCc3ccc(Cl)cc3)c2c1 [5at, N-[2-(4-Chlorophenyl)Ethyl]-6-Fluoro-4-Quinazolinamine]
- IC50 (NEK4 [3]): ~1000 nM
- remaining activity at 10 µM (CLK4 [4]; [11]): 16%
- remaining activity at 10 µM (EGFR [5]; [11]): 72%
- remaining activity at 10 µM (MAPK1(h); [11]): 114%
- remaining activity at 10 µM (MAPK2(h); [11]): 83%
- remaining activity at 10 µM (MAPK2(m); [11]): 91%
- remaining activity at 10 µM (MLCK(h); [11]): 86%

SMILES: Fc1ccc(CCNc2ncnc3ccc(F)cc23)cc1 [5as, 6-Fluoro-N-[2-(4-Fluorophenyl)Ethyl]-4-Quinazolinamine]
- remaining activity at 10 µM (NEK4 [6]): 27%
- remaining activity at 10 µM (CLK4 [4]; [12]): 12%
- remaining activity at 10 µM (EGFR [5]; [12]): 46%
- remaining activity at 10 µM (MAPK1(h); [12]): 93%
- remaining activity at 10 µM (MAPK2(h); [12]): 87%
- remaining activity at 10 µM (MAPK2(m); [12]): 105%
- remaining activity at 10 µM (MLCK(h); [12]): 88%
